Key:
[1] = system: A498; experiment: NCI 60 panel, Renal Cancer A498; type: cell-based; details: Homo sapiens, read-out: Tumor cell inhibitory activity (NCI) GI50
[2] = target: EGFR (Homo sapiens, UniProt P00533); experiment: EGFR kinase inhibition, whole-cell assay; type: cell-based; details: read-out: kinase inhibition IC50 [whole-cell assays] EGFR
[3] = system: DU-145; experiment: NCI 60 panel, Prostate Cancer DU-145; type: cell-based; details: Homo sapiens, read-out: Tumor cell inhibitory activity (NCI) GI50
[4] = target: PDGFRβ (Homo sapiens, UniProt P09619); experiment: PDGFRβ kinase inhibition, whole-cell assay; type: cell-based
Chain of PDGFRβ (P09619 33-1106, species assumed): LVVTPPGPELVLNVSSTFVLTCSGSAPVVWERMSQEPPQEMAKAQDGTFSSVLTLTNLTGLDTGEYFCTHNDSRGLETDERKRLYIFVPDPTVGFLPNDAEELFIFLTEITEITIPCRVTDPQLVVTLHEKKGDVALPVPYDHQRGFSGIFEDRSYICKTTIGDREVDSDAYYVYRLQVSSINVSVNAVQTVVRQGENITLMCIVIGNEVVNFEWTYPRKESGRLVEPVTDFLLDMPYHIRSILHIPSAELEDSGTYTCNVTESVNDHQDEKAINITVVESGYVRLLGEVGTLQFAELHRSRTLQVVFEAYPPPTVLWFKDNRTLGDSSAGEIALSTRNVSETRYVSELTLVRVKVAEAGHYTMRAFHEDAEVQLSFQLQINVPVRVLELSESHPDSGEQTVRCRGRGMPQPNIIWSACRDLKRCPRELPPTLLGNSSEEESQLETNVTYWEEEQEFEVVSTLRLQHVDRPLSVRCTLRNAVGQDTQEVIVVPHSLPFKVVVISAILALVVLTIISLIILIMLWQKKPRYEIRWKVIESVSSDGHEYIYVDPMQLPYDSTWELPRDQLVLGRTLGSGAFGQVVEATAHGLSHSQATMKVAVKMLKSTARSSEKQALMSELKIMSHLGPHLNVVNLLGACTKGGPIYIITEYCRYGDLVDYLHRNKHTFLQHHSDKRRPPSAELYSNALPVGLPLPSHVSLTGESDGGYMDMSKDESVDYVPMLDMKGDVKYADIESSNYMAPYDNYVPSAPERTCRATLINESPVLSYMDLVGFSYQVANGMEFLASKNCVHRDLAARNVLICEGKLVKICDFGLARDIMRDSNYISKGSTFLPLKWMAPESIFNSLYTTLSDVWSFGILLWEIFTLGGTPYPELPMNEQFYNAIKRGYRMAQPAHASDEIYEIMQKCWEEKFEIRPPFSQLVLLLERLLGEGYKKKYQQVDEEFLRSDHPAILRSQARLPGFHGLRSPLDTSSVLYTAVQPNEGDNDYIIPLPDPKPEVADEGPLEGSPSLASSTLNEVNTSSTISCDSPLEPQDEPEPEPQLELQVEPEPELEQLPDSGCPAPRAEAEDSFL

[5] = system: BT-549; experiment: NCI 60 panel, Breast Cancer BT-549; type: cell-based; details: Homo sapiens, read-out: Tumor cell inhibitory activity (NCI) GI50
[6] = system: HCT-15; experiment: NCI 60 panel, Colon Cancer HCT-15; type: cell-based; details: Homo sapiens, read-out: Tumor cell inhibitory activity (NCI) GI50
[7] = system: MALME-3M; experiment: NCI 60 panel, Melanoma MALME-3M; type: cell-based; details: Homo sapiens, read-out: Tumor cell inhibitory activity (NCI) GI50
[8] = system: wild type HeLa cells; experiment: HeLa cytotoxicity, wild type; type: cell-based; details: Homo sapiens
[9] = system: SF-295; experiment: NCI 60 panel, CNS Cancer SF-295; type: cell-based; details: Homo sapiens, read-out: Tumor cell inhibitory activity (NCI) GI50
[10] = system: SNB-19; experiment: NCI 60 panel, CNS Cancer SNB-19; type: cell-based; details: Homo sapiens, read-out: Tumor cell inhibitory activity (NCI) GI50
[11] = system: CCRF-CEM; experiment: NCI 60 panel, Leukemia CCRF-CEM; type: cell-based; details: Homo sapiens, read-out: Tumor cell inhibitory activity (NCI) GI50
[12] = system: MDA-MB-231/ATCC; experiment: NCI 60 panel, Breast Cancer MDA-MB-231/ATCC; type: cell-based; details: Homo sapiens, read-out: Tumor cell inhibitory activity (NCI) GI50
[13] = system: PC-3; experiment: NCI 60 panel, Prostate Cancer PC-3; type: cell-based; details: Homo sapiens, read-out: Tumor cell inhibitory activity (NCI) GI50
[14] = system: NCI-H23; experiment: NCI 60 panel, NSCLC NCI-H23; type: cell-based; details: Homo sapiens, read-out: Tumor cell inhibitory activity (NCI) GI50
[15] = system: A549/ATCC; experiment: NCI 60 panel, NSCLC A549/ATCC; type: cell-based; details: Homo sapiens, read-out: Tumor cell inhibitory activity (NCI) GI50
[16] = system: KM12; experiment: NCI 60 panel, Colon Cancer KM12; type: cell-based; details: Homo sapiens, read-out: Tumor cell inhibitory activity (NCI) GI50
[17] = system: RPMI-8226; experiment: NCI 60 panel, Leukemia RPMI-8226; type: cell-based; details: Homo sapiens, read-out: Tumor cell inhibitory activity (NCI) GI50
[18] = system: SN12C; experiment: NCI 60 panel, Renal Cancer SN12C; type: cell-based; details: Homo sapiens, read-out: Tumor cell inhibitory activity (NCI) GI50
[19] = system: OVCAR-8; experiment: NCI 60 panel, Ovarian cancer OVCAR-8; type: cell-based; details: Homo sapiens, read-out: Tumor cell inhibitory activity (NCI) GI50
[20] = system: NCI-H226; experiment: NCI 60 panel, NSCLC NCI-H226; type: cell-based; details: Homo sapiens, read-out: Tumor cell inhibitory activity (NCI) GI50
[21] = system: OVCAR-5; experiment: NCI 60 panel, Ovarian cancer OVCAR-5; type: cell-based; details: Homo sapiens, read-out: Tumor cell inhibitory activity (NCI) GI50
[22] = system: MDA-MB-468; experiment: NCI 60 panel, Breast Cancer MDA-MB-468; type: cell-based; details: Homo sapiens, read-out: Tumor cell inhibitory activity (NCI) GI50
[23] = system: RXF 393; experiment: NCI 60 panel, Renal Cancer RXF 393; type: cell-based; details: Homo sapiens, read-out: Tumor cell inhibitory activity (NCI) GI50
[24] = system: MDA-MB-435; experiment: NCI 60 panel, Melanoma MDA-MB-435; type: cell-based; details: Homo sapiens, read-out: Tumor cell inhibitory activity (NCI) GI50
[25] = system: LOX IMVI; experiment: NCI 60 panel, Melanoma LOX IMVI; type: cell-based; details: Homo sapiens, read-out: Tumor cell inhibitory activity (NCI) GI50
[26] = system: SF-268; experiment: NCI 60 panel, CNS Cancer SF-268; type: cell-based; details: Homo sapiens, read-out: Tumor cell inhibitory activity (NCI) GI50
[27] = system: tubulin (colchicine site); experiment: inhibition of [3H]colchicine binding to tubulin; design: species or system bovine
[28] = system: HL-60(TB); experiment: NCI 60 panel, Leukemia HL-60(TB); type: cell-based; details: Homo sapiens, read-out: Tumor cell inhibitory activity (NCI) GI50
[29] = system: NCI/ADR-RES; experiment: NCI 60 panel, Ovarian cancer NCI/ADR-RES; type: cell-based; details: Homo sapiens, read-out: Tumor cell inhibitory activity (NCI) GI50
[30] = system: IGROVI; experiment: NCI 60 panel, Ovarian cancer IGROVI; type: cell-based; details: read-out: Tumor cell inhibitory activity (NCI) GI50
[31] = system: SW-620; experiment: NCI 60 panel, Colon Cancer SW-620; type: cell-based; details: Homo sapiens, read-out: Tumor cell inhibitory activity (NCI) GI50
[32] = system: MCF7; experiment: NCI 60 panel, Breast Cancer MCF7; type: cell-based; details: Homo sapiens, read-out: Tumor cell inhibitory activity (NCI) GI50
[33] = system: HS 578T; experiment: NCI 60 panel, Breast Cancer HS 578T; type: cell-based; details: Homo sapiens, read-out: Tumor cell inhibitory activity (NCI) GI50
[34] = system: HCC-2998; experiment: NCI 60 panel, Colon Cancer HCC-2998; type: cell-based; details: Homo sapiens, read-out: Tumor cell inhibitory activity (NCI) GI50
[35] = system: bovine brain tubulin; experiment: inhibition of tubulin assembly; type: biochemical
[36] = system: ACHN; experiment: NCI 60 panel, Renal Cancer ACHN; type: cell-based; details: Homo sapiens, read-out: Tumor cell inhibitory activity (NCI) GI50
[37] = system: UO-31; experiment: NCI 60 panel, Renal Cancer UO-31; type: cell-based; details: Homo sapiens, read-out: Tumor cell inhibitory activity (NCI) GI50
[38] = system: M14; experiment: NCI 60 panel, Melanoma M14; type: cell-based; details: Homo sapiens, read-out: Tumor cell inhibitory activity (NCI) GI50
[39] = system: UACC-62; experiment: NCI 60 panel, Melanoma UACC-62; type: cell-based; details: Homo sapiens, read-out: Tumor cell inhibitory activity (NCI) GI50
[40] = system: A431 cells; experiment: A431 cytotoxicity; type: cell-based; details: Homo sapiens, A-431
[41] = system: NCI 60 tumor cell line panel; experiment: NCI 60 tumor cell line panel, overall; type: cell-based
[42] = system: UACC-257; experiment: NCI 60 panel, Melanoma UACC-257; type: cell-based; details: Homo sapiens, read-out: Tumor cell inhibitory activity (NCI) GI50
[43] = system: HCT-116; experiment: NCI 60 panel, Colon Cancer HCT-116; type: cell-based; details: Homo sapiens, read-out: Tumor cell inhibitory activity (NCI) GI50
[44] = target: VEGFR2 (Homo sapiens, UniProt P35968); experiment: VEGFR2 kinase inhibition, whole-cell assay; type: cell-based; details: read-out: kinase inhibition IC50 [whole-cell assays] VEGFR2
Chain of VEGFR2 (P35968 20-1356, species assumed): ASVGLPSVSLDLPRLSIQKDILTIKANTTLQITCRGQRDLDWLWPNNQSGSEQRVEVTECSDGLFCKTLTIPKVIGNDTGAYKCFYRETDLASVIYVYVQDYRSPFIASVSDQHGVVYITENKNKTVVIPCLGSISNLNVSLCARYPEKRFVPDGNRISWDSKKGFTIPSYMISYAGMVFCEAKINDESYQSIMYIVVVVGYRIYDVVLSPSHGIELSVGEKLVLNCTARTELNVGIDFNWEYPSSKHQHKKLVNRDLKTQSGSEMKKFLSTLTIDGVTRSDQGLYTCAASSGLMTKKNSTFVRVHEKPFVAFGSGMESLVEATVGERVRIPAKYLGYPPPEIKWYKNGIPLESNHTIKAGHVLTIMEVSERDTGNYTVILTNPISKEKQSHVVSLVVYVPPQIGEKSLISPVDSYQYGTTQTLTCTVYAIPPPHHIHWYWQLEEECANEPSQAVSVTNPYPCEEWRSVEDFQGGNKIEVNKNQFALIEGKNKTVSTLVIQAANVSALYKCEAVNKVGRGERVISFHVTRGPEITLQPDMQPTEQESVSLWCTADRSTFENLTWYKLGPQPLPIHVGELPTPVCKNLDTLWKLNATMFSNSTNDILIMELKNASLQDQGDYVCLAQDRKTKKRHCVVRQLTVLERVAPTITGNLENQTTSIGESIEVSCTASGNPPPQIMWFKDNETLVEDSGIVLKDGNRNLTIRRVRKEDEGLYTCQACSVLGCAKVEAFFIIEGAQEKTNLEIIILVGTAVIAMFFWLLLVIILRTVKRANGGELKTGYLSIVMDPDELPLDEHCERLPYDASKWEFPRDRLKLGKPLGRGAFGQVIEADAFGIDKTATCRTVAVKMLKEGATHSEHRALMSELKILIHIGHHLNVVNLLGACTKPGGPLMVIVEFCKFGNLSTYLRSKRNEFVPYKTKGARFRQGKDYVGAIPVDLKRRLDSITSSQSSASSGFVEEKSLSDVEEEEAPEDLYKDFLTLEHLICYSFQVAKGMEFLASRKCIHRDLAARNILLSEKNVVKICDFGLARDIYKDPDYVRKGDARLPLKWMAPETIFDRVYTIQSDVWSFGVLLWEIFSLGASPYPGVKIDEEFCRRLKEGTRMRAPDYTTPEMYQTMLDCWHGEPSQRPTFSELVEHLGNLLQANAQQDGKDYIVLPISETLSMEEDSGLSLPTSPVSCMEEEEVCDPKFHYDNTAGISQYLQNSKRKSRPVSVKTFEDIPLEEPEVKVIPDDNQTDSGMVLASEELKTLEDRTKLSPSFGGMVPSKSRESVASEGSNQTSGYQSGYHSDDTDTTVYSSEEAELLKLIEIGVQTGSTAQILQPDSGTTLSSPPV

[45] = system: HOP-92; experiment: NCI 60 panel, NSCLC HOP-92; type: cell-based; details: Homo sapiens, read-out: Tumor cell inhibitory activity (NCI) GI50
[46] = system: K-562; experiment: NCI 60 panel, Leukemia K-562; type: cell-based; details: Homo sapiens, K562, read-out: Tumor cell inhibitory activity (NCI) GI50
[47] = system: SF-539; experiment: NCI 60 panel, CNS Cancer SF-539; type: cell-based; details: Homo sapiens, read-out: Tumor cell inhibitory activity (NCI) GI50
[48] = system: HT29; experiment: NCI 60 panel, Colon Cancer HT29; type: cell-based; details: Homo sapiens, HT-29, read-out: Tumor cell inhibitory activity (NCI) GI50
[49] = system: SK-MEL-5; experiment: NCI 60 panel, Melanoma SK-MEL-5; type: cell-based; details: Homo sapiens, read-out: Tumor cell inhibitory activity (NCI) GI50
[50] = system: SK-OV-3; experiment: NCI 60 panel, Ovarian cancer SK-OV-3; type: cell-based; details: Homo sapiens, read-out: Tumor cell inhibitory activity (NCI) GI50
[51] = system: MOLT-4; experiment: NCI 60 panel, Leukemia MOLT-4; type: cell-based; details: Homo sapiens, read-out: Tumor cell inhibitory activity (NCI) GI50
[52] = compared with combretastatin A-4

Chain of EGFR (P00533 25-1210, species assumed): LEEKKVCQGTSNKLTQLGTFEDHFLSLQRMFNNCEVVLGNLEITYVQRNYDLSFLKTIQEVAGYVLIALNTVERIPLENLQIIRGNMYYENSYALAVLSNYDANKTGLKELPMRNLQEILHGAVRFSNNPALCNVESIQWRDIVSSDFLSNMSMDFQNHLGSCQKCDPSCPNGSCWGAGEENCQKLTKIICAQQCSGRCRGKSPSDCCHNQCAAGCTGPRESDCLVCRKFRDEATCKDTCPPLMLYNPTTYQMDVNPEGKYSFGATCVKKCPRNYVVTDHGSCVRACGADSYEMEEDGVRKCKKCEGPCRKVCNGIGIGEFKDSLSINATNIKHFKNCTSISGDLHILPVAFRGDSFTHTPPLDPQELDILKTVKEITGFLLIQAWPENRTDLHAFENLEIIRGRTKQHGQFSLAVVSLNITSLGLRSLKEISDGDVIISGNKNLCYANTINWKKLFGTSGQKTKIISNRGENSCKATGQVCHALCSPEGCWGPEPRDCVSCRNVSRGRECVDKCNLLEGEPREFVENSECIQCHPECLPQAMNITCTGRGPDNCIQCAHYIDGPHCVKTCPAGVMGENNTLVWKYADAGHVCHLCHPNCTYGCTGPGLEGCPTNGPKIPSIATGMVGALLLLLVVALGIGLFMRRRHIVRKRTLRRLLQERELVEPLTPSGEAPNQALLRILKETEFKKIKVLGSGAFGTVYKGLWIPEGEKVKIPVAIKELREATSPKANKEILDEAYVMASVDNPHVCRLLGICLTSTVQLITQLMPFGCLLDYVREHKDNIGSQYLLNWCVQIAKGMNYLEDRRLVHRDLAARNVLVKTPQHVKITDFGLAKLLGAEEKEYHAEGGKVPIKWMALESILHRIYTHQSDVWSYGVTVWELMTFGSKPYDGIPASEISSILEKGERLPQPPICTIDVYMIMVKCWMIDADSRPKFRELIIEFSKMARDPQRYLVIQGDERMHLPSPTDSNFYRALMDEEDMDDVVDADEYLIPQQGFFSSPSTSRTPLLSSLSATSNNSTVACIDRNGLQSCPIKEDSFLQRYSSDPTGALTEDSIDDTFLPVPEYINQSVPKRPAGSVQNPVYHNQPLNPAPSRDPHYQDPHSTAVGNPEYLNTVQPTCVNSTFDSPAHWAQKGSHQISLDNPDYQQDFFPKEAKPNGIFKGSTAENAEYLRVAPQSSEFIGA

Compound: COc1ccc(N(C)c2nc(C)nc3c(Cc4ccccc4)cn(C)c23)cc1 [Compound 4, 7-Benzyl-N-(4-methoxyphenyl)-N,2,5-trimethyl-5H-pyrrolo[3,2-d]pyrimidin-4-amine]
- GI50 [1]: 20.2 nM
- IC50 [2]: 2.3 ± 0.3 nM
- GI50 [3]: 44.4 nM
- potency against PDGFRβ, in words [4]: potencies comparable with DMBI
- IC50 ([4]; whole-cell assay, read-out: kinase inhibition IC50 [whole-cell assays] PDGFRβ): 10.3 nM
- GI50 [5]: 48.2 nM
- GI50 [6]: 38.1 nM
- GI50 [7]: 17.7 nM
- IC50 [8]: 14 ± 2 nM
- GI50 [9]: 30.4 nM
- GI50 [10]: 54.7 nM
- GI50 [11]: 33.5 nM
- GI50 [12]: 63.7 nM
- GI50 [13]: 49.6 nM
- GI50 [14]: 45.8 nM
- GI50 [15]: 44 nM
- GI50 [16]: 44.5 nM
- GI50 [17]: 36.9 nM
- GI50 [18]: 88.7 nM
- GI50 [19]: 49.1 nM
- GI50 [20]: 304 nM
- GI50 [21]: 269 nM
- GI50 [22]: 30.1 nM
- GI50 [23]: 25.4 nM
- GI50 [24]: 21.4 nM
- GI50 [25]: 58.8 nM
- GI50 [26]: 350 nM
- inhibition of colchicine binding (1 μM inhibitor) ([27]; 1 μM inhibitor, [3H]colchicine, in % (unit assumed)): 73 ± 3
- inhibition of colchicine binding (5 μM inhibitor) ([27]; 5 μM inhibitor, [3H]colchicine, in % (unit assumed)): 92 ± 0.2
- inhibition of [3H]colchicine binding to tubulin, in words [27, 52]: potent inhibitors
- GI50 [28]: 26.8 nM
- GI50 [29]: 32.8 nM
- GI50 [30]: 95.8 nM
- GI50 [31]: 38.4 nM
- GI50 [32]: 33.3 nM
- GI50 [33]: 62.3 nM
- GI50 [34]: 71.1 nM
- IC50 ([35]; bovine tubulin): 480 ± 8 nM
- inhibition of bovine tubulin assembly, in words [35, 52]: effective and potent inhibitors
- GI50 [36]: 172 nM
- GI50 [37]: 209 nM
- GI50 [38]: 29.5 nM
- GI50 [39]: 475 nM
- IC50 [40]: 1.2 nM
- GI50 across the NCI 60 tumor cell line panel, in words [41]: 2- to 3-digit nanomolar
- GI50 [42]: 78.2 nM
- GI50 [43]: 35 nM
- IC50 [44]: 33 nM
- GI50 [45]: 47.1 nM
- GI50 [46]: 33.7 nM
- GI50 [47]: 25.4 nM
- GI50 [48]: 35.1 nM
- GI50 [49]: 54.2 nM
- GI50 [50]: 45.4 nM
- GI50 [51]: 50.8 nM
